Experimental data: patent publication US12385839B2, “Use of protein in predicting drug properties” (priority 2021, dated 2025)
Read-outs that look alike come from different tables or passages of the source.

Experiments:
[1] = biological target: T1, human serum albumin (HSA) (Homo sapiens, UniProt P02768); test: Fluorescence emission spectrum (quenching) of HSA with carbamate pesticides; format: binding; conditions: for R (binding distance): Förster energy transfer; for fluorescence of HSA quenched by pesticide: titration of pesticide; for ΔH^0 / ΔS^0: Van't Hoff, 296-310 K
Experimental: the mixed solution to be tested was preheated at […] for 3 minutes, and the emission spectrum of HSA with carbamate pesticides was measured at 300-500 nm . The excitation wavelength was set at 280 nm , and the slit width for both excitation and emission was 15 nm; the HSA concentration was kept constant at 5×10^−7 M, and the pesticide concentration was (0-105)×10^−7 M.
The internal filtering effect of fluorescence signal was corrected according to the following formula: Fcor=Fobsexp[(Aex+Aem)/2] (1);
in this formula, Fcor and Fobs represent corrected fluorescence signal and observed fluorescence signal, respectively, and Aex and Aem represent absorbance of the mixed solution to be tested at excitation wavelength and emission wavelengths, respectively; the quenching constant, number of binding sites, binding constant, free energy and binding distance of different drugs were obtained by fluorescence emission spectra, and a BP neural network model was obtained. Specifically, they were obtained as follows:
There is a linear relationship between F0/F and [Q] to distinguish whether it is static quenching or dynamic quenching. The fluorescence quenching data are analyzed by Stern-Volmer equation to clarify the quenching mechanism: F0/F=1+KSV[Q]=1+Kqτ0[Q] (2);
in the formula, F0 and F are fluorescence signals […] quencher, respectively. Ksv is Stern-Volmer quenching constant; Kq is a quenching rate constant of biomolecules; τ0 is the average lifetime of biomolecules without quencher (about 10^−8 s); [Q] is the concentration of quencher.
The maximum dynamic quenching rate constant of all kinds of quenchers on polymers was 2.0×10^10 L·mol^−1·s^−1. Static quenching and dynamic quenching could be judged according to this value. If K^q was greater than 2.0×10^10 L·mol^−1·s^−1, it belonged to static quenching. Otherwise, it belonged to dynamic quenching.
In this part, the binding sites and binding constants between carbamate pesticides and HSA were calculated. The following formula was used to calculate the number of binding sites (n) and the binding constant (Ka) of carbamate pesticides and HSA: log[(F0−F)/F]=log Ka+nlog[Q] (3);
The interactions between biological molecules and drug molecules were weak intermolecular interactions, including hydrogen bonds, van der Waals forces, electrostatic forces and hydrophobic interactions. By using Van't Hoff equation, the thermodynamic constants of drug-protein interaction were obtained, and the main types of drug-protein interaction were judged according to the changes of binding constants under different conditions. LnK=−ΔH^0/RT+ΔS^0/R (4); ΔG^0=ΔH^0−TΔS^0 (5);
There is a relationship among energy transfer efficiency E, distance r between energy donor and energy receptor and energy transfer distance R0. E=1−F/F0=R0^6/(R0^6+r^6) (6);
E represents the transfer efficiency between donor and receptor, r is the average distance between donor and receptor, and R0 is the critical distance when the transfer efficiency is 50%. R0^6=8.79×10^−K^2N^−4φJ (7)
K^2 is the orientation related to the geometry of donor and receptor of dipole. For random orientation in fluid, K^2=2/3; N is the average refractive index of the medium in the wavelength range with obvious spectral overlap, and the refractive index of water and organic matter is 1.336; φ is the quantum yield of donor, and the quantum yield of tryptophan in HSA is about 0.118; J represents the influence of spectral overlap between the emission spectrum of the donor and the absorption spectrum of the receptor, and can be calculated by the following formula: j=ΣF(λ)ϵ(λ)λ^4Δλ/ΣF(λ) Δλ (8);
F(λ) is the corrected fluorescence signal of the donor in the wavelength range from λ to (λ+Δλ), while ϵ(λ) is the extinction coefficient of the receptor at λ.

[2] = biological target: T1, human serum albumin (HSA); test: Circular dichroism spectrum, secondary structure (α-helix content) of HSA; conditions: HSA 2×10^−6 M
Experimental: the mixed solution to be tested was preheated at […] for 2-5 minutes, and the CD spectrum of HSA was recorded in the wavelength range of 200-500 nm . The concentration of HSA was kept at 2×10^−6 M, and the pesticide was (0-20)×10^−6 m. Firstly, HSA was measured, and then the ratio of HSA to pesticides needed to be determined specifically, which was preliminarily determined according to the ratio of 1:1, 1:2 and 1:3.
According to the following equation, the result of CD spectrum was usually expressed as the mean residue ellipticity (MRE), and the unit was deg·cm^2·dmol^−1. MRE=ObservedCD(mdeg)/(10Cpnl) (9);
in which Cp is the molar concentration of protein, n is the number (585) of amino acid residues, and 1 is the path length (1 mm). The α helicity of free and bound HSA is calculated from MRE values using the following formula: α−Helix(%)=[(−MRE208−4000)×100]/(33000-4000) (10)
in which the MRE208 is the MRE value observed at 208 nm , 4000 is the MRE value of random coil conformation at 208 nm , and […] is the MRE value of pure α helix at 208 nm .

[3] = cited from earlier work; for LD50: modelling table; for Toxicity: toxicity grade by LD50, trailing figure = number of pesticides in group
[4] = Ka (binding constant), 296 K, pH 7.4
[5] = Ka (binding constant), 303 K, pH 7.4
[6] = Ka (binding constant), 310 K, pH 7.4
[7] = 296 K, test-set pesticides (Table 4)
[8] = 303 K, test-set pesticides (Table 4)
[9] = 310 K, test-set pesticides (Table 4)

T1 sequence (P02768 25-609): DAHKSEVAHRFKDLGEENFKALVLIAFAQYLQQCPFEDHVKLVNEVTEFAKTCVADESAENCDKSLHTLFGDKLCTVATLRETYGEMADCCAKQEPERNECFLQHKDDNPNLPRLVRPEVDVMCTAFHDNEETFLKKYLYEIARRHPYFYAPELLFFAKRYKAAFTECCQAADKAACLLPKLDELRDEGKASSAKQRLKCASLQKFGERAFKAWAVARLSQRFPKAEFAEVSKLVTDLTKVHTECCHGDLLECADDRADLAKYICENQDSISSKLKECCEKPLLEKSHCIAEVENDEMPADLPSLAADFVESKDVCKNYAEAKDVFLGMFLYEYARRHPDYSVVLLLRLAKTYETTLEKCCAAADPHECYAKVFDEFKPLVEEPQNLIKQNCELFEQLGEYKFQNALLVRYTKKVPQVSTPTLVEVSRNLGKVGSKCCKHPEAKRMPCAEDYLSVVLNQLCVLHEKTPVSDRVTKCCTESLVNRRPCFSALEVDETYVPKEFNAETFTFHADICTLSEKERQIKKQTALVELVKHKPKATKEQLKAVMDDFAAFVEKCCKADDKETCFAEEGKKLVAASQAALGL

SMILES | Ksv (37°) ([1]; 37°, modelling table) | ΔG(37°) ([1]; 37°, modelling table) | ΔG^0 ([1]; 296 K) | Kq ([1]; 296 K, pH 7.4) | Ksv ([1]; 296 K, pH 7.4) | n (number of binding sites) ([1]; 296 K, pH 7.4) | ΔG^0 ([1]; 303 K) | Kq ([1]; 303 K, pH 7.4) | Ksv ([1]; 303 K, pH 7.4) | n (number of binding sites) ([1]; 303 K, pH 7.4) | ΔG^0 ([1]; 310 K) | R (binding distance) ([1]; 310 K) | Kq ([1]; 310 K, pH 7.4) | Ksv ([1]; 310 K, pH 7.4) | n (number of binding sites) ([1]; 310 K, pH 7.4) | ΔH^0 [1] | Binding distance/r ([1]; modelling table) | Number of binding sites/n ([1]; modelling table) | LD50 [3] | Toxicity [3] | other results
CNC(=O)Oc1cccc(C)c1 [Metolcarb, metolcarb] | 44415.60221 | −16.22 | -3.1766 kcal/mol | 3.261 ± 0.020 10^12 M^−1s^−1 | 3.261 ± 0.020 10^4 M^−1 | 0.564 ± 0.012 | -3.5268 kcal/mol | 3.415 ± 0.159 10^12 M^−1s^−1 | 3.415 ± 0.159 10^4 M^−1 | 0.587 ± 0.001 | -3.8772 kcal/mol | 2.525 nm | 4.442 ± 0.118 10^12 M^−1s^−1 | 4.442 ± 0.118 10^4 M^−1 | 0.616 ± 0.003 | 11.633 kcal/mol | 2.525 | 0.6156 | 268 mg/kg | Moderately | fluorescence of HSA quenched by pesticide ([1]; 310 K): quenched; Kd [1, 4]: 4450 µM; Kd [1, 5]: 2950 µM; Kd [1, 6]: 1820 µM; ΔS^0 [1]: 209.338 J · mol^−1 · K^−1; α-helix contents ([2]; 5:1 (Pesticide:HSA)): 53.549%; α-helix contents ([2]; 10:1 (Pesticide:HSA)): 53.215%
CCSCc1ccccc1OC(=O)NC [Ethiofencarb, ethiofencarb] | 41346.56830 | −17.7 | -3.4355 kcal/mol | 2.562 ± 0.137 10^12 M^−1s^−1 | 2.562 ± 0.137 10^4 M^−1 | 0.613 ± 0.003 | -3.8329 kcal/mol | 3.301 ± 0.074 10^12 M^−1s^−1 | 3.301 ± 0.074 10^4 M^−1 | 0.645 ± 0.009 | -4.2302 kcal/mol | 2.363 nm | 4.135 ± 0.166 10^12 M^−1s^−1 | 4.135 ± 0.166 10^4 M^−1 | 0.674 ± 0.002 | 13.365 kcal/mol | 2.363 | 0.6742 | 200 mg/kg | Moderately | fluorescence of HSA quenched by pesticide ([1]; 310 K): quenched; Kd [1, 4]: 2920 µM; Kd [1, 5]: 1710 µM; Kd [1, 6]: 1050 µM; ΔS^0 [1]: 237.483 J · mol^−1 · K^−1; α-helix contents ([2]; 5:1 (Pesticide:HSA)): 49.087%; α-helix contents ([2]; 10:1 (Pesticide:HSA)): 48.340%
CNC(=O)O/N=C(\C[S+](C)[O-])C(C)(C)C (stereo not drawn) [Thiofanox-sulfoxide] | – | – | -4.1427 kcal/mol | 3.284 ± 0.040 10^12 M^−1s^−1 | 3.284 ± 0.040 10^4 M^−1 | 0.707 ± 0.009 | -4.5277 kcal/mol | 4.237 ± 0.067 10^12 M^−1s^−1 | 4.237 ± 0.067 10^4 M^−1 | 0.726 ± 0.005 | -4.913 kcal/mol | 1.702 nm | 5.339 ± 0.093 10^12 M^−1s^−1 | 5.339 ± 0.093 10^4 M^−1 | 0.746 ± 0.006 | 12.144 kcal/mol | – | – | – | – | Ka (binding constant) ([1]; 296 K, pH 7.4): (1.127 ± 0.100) × 10^3 M^−1; Ka (binding constant) ([1]; 303 K, pH 7.4): (1.906 ± 0.103) × 10^3 M^−1; Ka (binding constant) ([1]; 310 K, pH 7.4): (2.861 ± 0.176) × 10^3 M^−1; ΔS^0 [1]: 230.219 J · mol^−1 · K^−1; α-helix contents ([2]; 5:1 (Pesticide:HSA)): 50.523%; α-helix contents ([2]; 10:1 (Pesticide:HSA)): 48.338%
CNC(=O)O/N=C/C(C)(C)S(C)(=O)=O [Aldicarb-sulfone, aldicarb sulfone] | 39842.68547 | −17.29 | – | – | – | – | – | – | – | – | – | – | – | – | – | – | – | 0.6544 | – | – | n ([1]; 296 K (Table 4)): 0.582 ± 0.008; ΔG^0 ([1]; 296 K (Table 4)): -3.2622 kcal/mol; Ksv [1, 7]: 2.797 ± 0.157 10^4 M−1; n ([1]; 303 K (Table 4)): 0.624 ± 0.003; ΔG^0 ([1]; 303 K (Table 4)): -3.6977 kcal/mol; Ksv [1, 8]: 3.379 ± 0.129 10^4 M−1; n ([1]; 310 K (Table 4)): 0.654 ± 0.010; r ([1]; 310 K (Table 4)): 2.376; ΔG^0 ([1]; 310 K (Table 4)): -4.1334 kcal/mol; Ksv [1, 9]: 3.984 ± 0.197 10^4 M−1; Kd ([1]; Ka (37°), 37°, modelling table): 1210 µM; Kd ([1]; Ka, 296 K (Table 4)): 3860 µM; Kd ([1]; Ka, 303 K (Table 4)): 2200 µM
CCC(C)c1ccccc1OC(=O)NC (stereo not drawn) [Fenobucarb, fenobucarb] | 50302.85806 | −15.31 | – | – | – | – | – | – | – | – | – | – | – | – | – | – | 2.791 | 0.5672 | 350 mg/kg | Moderately | n ([1]; 296 K (Table 4)): 0.535 ± 0.006; ΔG^0 ([1]; 296 K (Table 4)): -3.0858 kcal/mol; Ksv [1, 7]: 3.803 ± 0.107 10^4 M−1; n ([1]; 303 K (Table 4)): 0.559 ± 0.004; ΔG^0 ([1]; 303 K (Table 4)): -3.3726 kcal/mol; Ksv [1, 8]: 4.110 ± 0.183 10^4 M−1; n ([1]; 310 K (Table 4)): 0.567 ± 0.008; r ([1]; 310 K (Table 4)): 2.791; ΔG^0 ([1]; 310 K (Table 4)): -3.6597 kcal/mol; Ksv [1, 9]: 5.030 ± 0.145 10^4 M−1; Kd ([1]; Ka (37°), 37°, modelling table): 2640 µM; Kd ([1]; Ka, 296 K (Table 4)): 5280 µM; Kd ([1]; Ka, 303 K (Table 4)): 3670 µM; Actual LD50 ([3]; Table 5): 350 mg/kg; Actual LD50 ([3]; Table 6): 350 mg/kg
CNC(=O)O/N=C/C(C)(C)SC [Aldicarb, aldicarb] | 72295.50723 | −24.42 | – | – | – | – | – | – | – | – | – | – | – | – | – | – | 2.623 | 0.8508 | 0.5 mg/kg | Highly | Kd ([1]; 37°, modelling table, read-out: Ka (37°) (converted)): 77.3 µM; n ([1]; 296 K (Table 4)): 0.823 ± 0.002; ΔG^0 ([1]; 296 K (Table 4)): -5.321 kcal/mol; Kd ([1]; 296 K (Table 4), read-out: Ka): 119 µM; Ksv [1, 7]: 6.498 ± 0.153 10^4 M−1; n ([1]; 303 K (Table 4)): 0.837 ± 0.002; ΔG^0 ([1]; 303 K (Table 4)): -5.5786 kcal/mol; Kd ([1]; 303 K (Table 4), read-out: Ka): 93.5 µM; Ksv [1, 8]: 6.999 ± 0.079 10^4 M−1; n ([1]; 310 K (Table 4)): 0.851 ± 0.002; r ([1]; 310 K (Table 4)): 2.623; ΔG^0 ([1]; 310 K (Table 4)): -5.8363 kcal/mol; Ksv [1, 9]: 7.230 ± 0.167 10^4 M−1; Actual LD50 ([3]; Table 5): 0.5 mg/kg; Actual LD50 ([3]; Table 6): 0.5 mg/kg
